In patent US9410125B2, “Medium for mammalian somatic cells and additive therefor” (FUJIREBIO INC., priority 2007, dated 2016):

System: human bone marrow-derived mesenchymal stem cells (hMSCs)
Test: Adipogenic differentiation of hMSCs (Oil Red O staining)
Format: cell-based
Settings: Example 2, differentiation into adipocytes and osteocytes
Procedure: Cells maintained for several passages using the conventional medium in (2-2) and 1% S-3, 1% FCS were transferred to wells in a 96-well plate each containing 0.1 mL of an adipocyte differentiation medium (DMEM, 10% FCS, 500 μM isobutylmethylxanthine (IBMX), 1 μM dexamethasone, 1 μM insulin, 1 μM Rosiglitazone) at a cell density of 20,000 cells/cm2, and cultured at 37° C. under 5% CO2 for 14 days, to induce differentiation into adipocytes. differentiated cells were confirmed by Oil Red O staining.
Cells maintained for several passages using conventional medium A and serum-free growth medium A were transferred to wells in a 48-well plate each containing 0.3 mL of an adipocyte differentiation medium (DMEM, 10% FCS, 500 μM IBMX, 1 μM dexamethasone, 1 μM insulin, 1 μM Rosiglitazone) at a cell density of 30,000 cells/cm2, and cultured at 37° C. under 5% CO2 for 14 days, to induce differentiation into adipocytes. differentiated cells were confirmed by Oil Red O staining. […]

CCCCCCCCCCCCC/C=C/[C@@H](O)[C@@H](N)COP(=O)(O)O [S1P, sphingosine-1-phosphate]
tendency in differentiation when used instead of LPA as the Edg ligand: did not change
